The structures appear in SMILES notation.

We go through 27 compounds from US11065257B2, “Substituted pyrazoloazepin-4-ones and their use as phosphodiesterase inhibitors” (LEO Pharma A/S, priority 2016, dated 2021).

T1 sequence (Q08499 380-740): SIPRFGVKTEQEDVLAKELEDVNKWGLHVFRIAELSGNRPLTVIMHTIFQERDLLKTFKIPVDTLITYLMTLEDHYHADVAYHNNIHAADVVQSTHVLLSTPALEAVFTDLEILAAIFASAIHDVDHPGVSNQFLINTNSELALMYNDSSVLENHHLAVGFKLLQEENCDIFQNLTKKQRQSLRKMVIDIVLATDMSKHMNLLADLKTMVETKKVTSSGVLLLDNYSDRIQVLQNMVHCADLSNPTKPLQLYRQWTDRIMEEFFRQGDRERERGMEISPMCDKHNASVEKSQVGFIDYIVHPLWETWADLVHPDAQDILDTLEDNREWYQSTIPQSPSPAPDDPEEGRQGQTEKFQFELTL

The experiment addresses T1, human PDE4D catalytic domain (Homo sapiens, UniProt Q08499).
T1 construct: UniProt no; Q08499 [S380-L740]
The experiment can be described thus: PDE4 Assay. As to conditions: human PDE4D catalytic domain (S380-L740), TR-FRET with FAM-cAMP; expressed as a range of IC50; read-out: PDE4 Potency Range. The format is biochemical. In outline: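 Catalytic domain (S380-L740) was incubated with unlabelled cAMP plus FAM-cAMP and titrated compound, then stopped with Tb-donor nanoparticles binding AMP phospho groups. Generated AMP was read by time-resolved FRET; IC50 was reported as 50% inhibition of substrate cleavage relative to controls, expressed as nM ranges.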
On to `CCc1nn(CCCOC(=O)C2CCCSC2)c2c1C(=O)NCC1(CCOCC1)C2` (stereo not drawn) [Example 84, 3-(3-ethyl-4-oxo-spiro[6,8-dihydro-5H-pyrazolo[4,3-c]azepine-7,4′-tetrahydropyran]-1-yl)propyl tetrahydrothiopyran-3-carboxylate], for which the IC50 lay in the range of 100 to 500 nM.
As for `CCc1nn(CCCOC(=O)C2CCSCC2)c2c1C(=O)NCC1(CCOCC1)C2` [Example 85, 3-(3-ethyl-4-oxo-spiro[6,8-dihydro-5H-pyrazolo[4,3-c]azepine-7,4′-tetrahydropyran]-1-yl)propyl tetrahydrothiopyran-4-carboxylate], the figure is 100 to 500 nM; as for `CCc1nn(CCCOC(=O)c2cc(C)nc(C)c2)c2c1C(=O)NCC1(CCOCC1)C2` [Example 86, 3-(3-ethyl-4-oxo-spiro[6,8-dihydro-5H-pyrazolo[4,3-c]azepine-7,4′-tetrahydropyran]-1-yl)propyl 2,6-dimethylpyridine-4-carboxylate], 100 to 500 nM.
To `CCc1nn(CCCOC(=O)c2ccc(C)nc2C)c2c1C(=O)NCC1(CCOCC1)C2` [Example 87, 3-(3-ethyl-4-oxo-spiro[6,8-dihydro-5H-pyrazolo[4,3-c]azepine-7,4′-tetrahydropyran]-1-yl)propyl 2,6-dimethylpyridine-3-carboxylate] belongs < 100 nM; to `CCc1nn(CCCOC(=O)c2cc(C)nnc2C)c2c1C(=O)NCC1(CCOCC1)C2` [Example 88, 3-(3-ethyl-4-oxo-spiro[6,8-dihydro-5H-pyrazolo[4,3-c]azepine-7,4′-tetrahydropyran]-1-yl)propyl 3,6-dimethylpyridazine-4-carboxylate], > 500 nM; to `CCc1nn(CCCOC(=O)c2coc(C3CC3)n2)c2c1C(=O)NCC1(CCOCC1)C2` [Example 89, 3-(3-ethyl-4-oxo-spiro[6,8-dihydro-5H-pyrazolo[4,3-c]azepine-7,4′-tetrahydropyran]-1-yl)propyl 2-cyclopropyloxazole-4-carboxylate], 100 to 500 nM.
To `CCc1nn(CCCOC(=O)c2cc(C)nn2CC)c2c1C(=O)NCC1(CCOCC1)C2` [Example 90, 3-(3-ethyl-4-oxo-spiro[6,8-dihydro-5H-pyrazolo[4,3-c]azepine-7,4′-tetrahydropyran]-1-yl)propyl 2-ethyl-5-methyl-pyrazole-3-carboxylate] belongs 100 to 500 nM; to `CCc1nn(CCCOC(=O)c2c(C)nn(C)c2C)c2c1C(=O)NCC1(CCOCC1)C2` [Example 91, 3-(3-ethyl-4-oxo-spiro[6,8-dihydro-5H-pyrazolo[4,3-c]azepine-7,4′-tetrahydropyran]-1-yl)propyl 1,3,5-trimethylpyrazole-4-carboxylate], 100 to 500 nM.
Turning to `CCc1noc(C)c1C(=O)OCCCn1nc(CC)c2c1CC1(CCOCC1)CNC2=O` [Example 92, 3-(3-ethyl-4-oxo-spiro[6,8-dihydro-5H-pyrazolo[4,3-c]azepine-7,4′-tetrahydropyran]-1-yl)propyl 3-ethyl-5-methyl-isoxazole-4-carboxylate], the IC50 is > 500 nM.
To `CCc1nn(CCCOC(=O)C2CCN(C(C)=O)C2)c2c1C(=O)NCC1(CCOCC1)C2` (stereo not drawn) [Example 93, 3-(3-ethyl-4-oxo-spiro[6,8-dihydro-5H-pyrazolo[4,3-c]azepine-7,4′-tetrahydropyran]-1-yl)propyl 1-acetylpyrrolidine-3-carboxylate] belongs > 500 nM; to `CCc1nn(CCCOC(=O)c2nc(C)c(C)s2)c2c1C(=O)NCC1(CCOCC1)C2` [Example 94, 3-(3-ethyl-4-oxo-spiro[6,8-dihydro-5H-pyrazolo[4,3-c]azepine-7,4′-tetrahydropyran]-1-yl)propyl 4,5-dimethylthiazole-2-carboxylate], 100 to 500 nM; to `CCc1nn(CCCOC(=O)c2sc(C)nc2C)c2c1C(=O)NCC1(CCOCC1)C2` [Example 95, 3-(3-ethyl-4-oxo-spiro[6,8-dihydro-5H-pyrazolo[4,3-c]azepine-7,4′-tetrahydropyran]-1-yl)propyl 2,4-dimethylthiazole-5-carboxylate], 100 to 500 nM.
As for `CCc1nn(CCCOC(=O)C2CCS(=O)(=O)C2)c2c1C(=O)NCC1(CCOCC1)C2` (stereo not drawn) [Example 96, 3-(3-ethyl-4-oxo-spiro[6,8-dihydro-5H-pyrazolo[4,3-c]azepine-7,4′-tetrahydropyran]-1-yl)propyl 1,1-dioxothiolane-3-carboxylate], the figure is > 500 nM.
As for `CCc1noc(CC)c1C(=O)OCCCn1nc(CC)c2c1CC1(CCOCC1)CNC2=O` [Example 97, 3-(3-ethyl-4-oxo-spiro[6,8-dihydro-5H-pyrazolo[4,3-c]azepine-7,4′-tetrahydropyran]-1-yl)propyl 3,5-diethylisoxazole-4-carboxylate], the figure is 100 to 500 nM; as for `CCc1nn(CCCOC(=O)C2CCCN(C(C)=O)C2)c2c1C(=O)NCC1(CCOCC1)C2` (stereo not drawn) [Example 98, 3-(3-ethyl-4-oxo-spiro[6,8-dihydro-5H-pyrazolo[4,3-c]azepine-7,4′-tetrahydropyran]-1-yl)propyl 1-acetylpiperidine-3-carboxylate], > 500 nM; as for `CCc1nn(CCCOC(=O)C2CCN(C(C)=O)CC2)c2c1C(=O)NCC1(CCOCC1)C2` [Example 99, 3-(3-ethyl-4-oxo-spiro[6,8-dihydro-5H-pyrazolo[4,3-c]azepine-7,4′-tetrahydropyran]-1-yl)propyl 1-acetylpiperidine-4-carboxylate], > 500 nM.
As for `CCc1nn(CCCOC(=O)c2sc(OC)nc2C)c2c1C(=O)NCC1(CCOCC1)C2` [Example 100, 3-(3-ethyl-4-oxo-spiro[6,8-dihydro-5H-pyrazolo[4,3-c]azepine-7,4′-tetrahydropyran]-1-yl)propyl 2-methoxy-4-methyl-thiazole-5-carboxylate], the IC50 is 100 to 500 nM.
Turning to `CCc1nn(CCCOC(=O)c2ccc3ncn(C)c3c2)c2c1C(=O)NCC1(CCOCC1)C2` [Example 101, 3-(3-ethyl-4-oxo-spiro[6,8-dihydro-5H-pyrazolo[4,3-c]azepine-7,4′-tetrahydropyran]-1-yl)propyl 3-methylbenzimidazole-5-carboxylate], the IC50 was < 100 nM.
As for `CCc1nn(CCCOC(=O)C2CCCS(=O)(=O)C2)c2c1C(=O)NCC1(CCOCC1)C2` (stereo not drawn) [Example 102, 3-(3-ethyl-4-oxo-spiro[6,8-dihydro-5H-pyrazolo[4,3-c]azepine-7,4′-tetrahydropyran]-1-yl)propyl 1,1-dioxothiane-3-carboxylate], the figure is > 500 nM.
As to `CCc1nn(CCCOC(=O)C2CCS(=O)(=O)CC2)c2c1C(=O)NCC1(CCOCC1)C2` [Example 103, 3-(3-ethyl-4-oxo-spiro[6,8-dihydro-5H-pyrazolo[4,3-c]azepine-7,4′-tetrahydropyran]-1-yl)propyl 1,1-dioxothiane-4-carboxylate], the IC50 is > 500 nM.
To `CCc1nn(CCCOC(=O)C2CCCN(C(=O)OC)C2)c2c1C(=O)NCC1(CCOCC1)C2` (stereo not drawn) [Example 104, O3-[3-(3-ethyl-4-oxo-spiro[6,8-dihydro-5H-pyrazolo[4,3-c]azepine-7,4′-tetrahydropyran]-1-yl)propyl] O1-methyl piperidine-1,3-dicarboxylate] belongs 100 to 500 nM.
As for `CCc1nn(CCCOC(=O)C2CCN(C(=O)OC)CC2)c2c1C(=O)NCC1(CCOCC1)C2` [Example 105, O4-[3-(3-ethyl-4-oxo-spiro[6,8-dihydro-5H-pyrazolo[4,3-c]azepine-7,4′-tetrahydropyran]-1-yl)propyl] O1-methyl piperidine-1,4-dicarboxylate], the figure is 100 to 500 nM.
As for `CCc1nn(CCCOC(=O)C2CCCN(C(=O)N(C)C)C2)c2c1C(=O)NCC1(CCOCC1)C2` (stereo not drawn) [Example 106, 3-(3-ethyl-4-oxo-spiro[6,8-dihydro-5H-pyrazolo[4,3-c]azepine-7,4′-tetrahydropyran]-1-yl)propyl 1-(dimethylcarbamoyl)piperidine-3-carboxylate], the figure is 100 to 500 nM; as for `CCc1nn(C[C@@H](C)COC(=O)C2CCOC2)c2c1C(=O)NCC1(CCOCC1)C2` (stereo partly drawn) [Example 108, [(2R)-3-(3-ethyl-4-oxo-spiro[6,8-dihydro-5H-pyrazolo[4,3-c]azepine-7,4′-tetrahydropyran]-1-yl)-2-methyl-propyl] tetrahydrofuran-3-carboxylate], < 100 nM.
For `CCc1nn(C[C@@H](C)COC(=O)C2CCOCC2)c2c1C(=O)NCC1(CCOCC1)C2` [Example 109, [(2R)-3-(3-ethyl-4-oxo-spiro[6,8-dihydro-5H-pyrazolo[4,3-c]azepine-7,4′-tetrahydropyran]-1-yl)-2-methyl-propyl] tetrahydropyran-4-carboxylate], the IC50 is < 100 nM.
To `CCc1nn(CC(C)(C)COC(=O)C2CCOC2)c2c1C(=O)NCC1(CCOCC1)C2` (stereo not drawn) [Example 110, [3-(3-ethyl-4-oxo-spiro[6,8-dihydro-5H-pyrazolo[4,3-c]azepine-7,4′-tetrahydropyran]-1-yl)-2,2-dimethyl-propyl] tetrahydrofuran-3-carboxylate] belongs 100 to 500 nM.
As to `CCc1nn(CC(C)(C)COC(=O)C2CCOCC2)c2c1C(=O)NCC1(CCOCC1)C2` [Example 111, [3-(3-ethyl-4-oxo-spiro[6,8-dihydro-5H-pyrazolo[4,3-c]azepine-7,4′-tetrahydropyran]-1-yl)-2,2-dimethyl-propyl] tetrahydropyran-4-carboxylate], the IC50 is 100 to 500 nM.
